In paper PMC5762315, “Inhibition of polo-like kinase 4 (PLK4): a new therapeutic option for rhabdoid tumors and pediatric medulloblastoma” (Oncotarget, 2017):
pIC50: −log10 of the molar value. “And” between values parts separate entries of the source, which are not always exact repeats. Equal values may be shown once.

How the values were obtained:
Assay in all cases: LanthaScreen Eu Kinase Binding Assay, panel of 486 biochemical kinase assays
[1] = target: various kinases (Homo sapiens, UniProt Q9UM73, F1174L); conditions: ALK F1174L
[2] = target: various kinases (Homo sapiens, UniProt P06493); conditions: CDK1/cyclin A2
[3] = target: various kinases (Homo sapiens, UniProt Q9UPZ9); conditions: ICK
[4] = target: various kinases (Homo sapiens, UniProt Q32MK0); conditions: MLCK (MLCK2)
[5] = target: various kinases (Homo sapiens, UniProt Q07912); conditions: kinase TNK2 (ACK); LanthaScreen Binding
[6] = target: various kinases (Homo sapiens, UniProt Q13163); conditions: MAP2K5 (MEK5)
[7] = target: various kinases (Homo sapiens, UniProt P50750)
[8] = target: various kinases (Homo sapiens, UniProt P29320); conditions: EPHA3
[9] = target: various kinases (Homo sapiens, UniProt Q99558); conditions: MAP3K14 (NIK)
[10] = target: various kinases (Homo sapiens, UniProt Q9UBE8); conditions: NLK
[11] = target: various kinases (Homo sapiens, UniProt Q5TCX8); conditions: MLK4
[12] = target: various kinases (Homo sapiens, UniProt P36507); conditions: MAP2K2 (MEK2)
[13] = target: various kinases (Homo sapiens, UniProt Q08345); conditions: DDR1
[14] = target: various kinases (Homo sapiens, UniProt P57058); conditions: HUNK
[15] = target: various kinases (Homo sapiens, UniProt P07949, M918T); conditions: kinase RET M918T; LanthaScreen Binding
[16] = target: various kinases (Homo sapiens, UniProt Q8IVH8); conditions: MAP4K3 (GLK)
[17] = target: various kinases (Homo sapiens, UniProt P22694); conditions: kinase PRKACB (PRKAC beta); LanthaScreen Binding
[18] = target: T1, various kinases (Homo sapiens, UniProt O75385); conditions: kinase ULK1; LanthaScreen Binding
T1 sequence (O75385 1-1050): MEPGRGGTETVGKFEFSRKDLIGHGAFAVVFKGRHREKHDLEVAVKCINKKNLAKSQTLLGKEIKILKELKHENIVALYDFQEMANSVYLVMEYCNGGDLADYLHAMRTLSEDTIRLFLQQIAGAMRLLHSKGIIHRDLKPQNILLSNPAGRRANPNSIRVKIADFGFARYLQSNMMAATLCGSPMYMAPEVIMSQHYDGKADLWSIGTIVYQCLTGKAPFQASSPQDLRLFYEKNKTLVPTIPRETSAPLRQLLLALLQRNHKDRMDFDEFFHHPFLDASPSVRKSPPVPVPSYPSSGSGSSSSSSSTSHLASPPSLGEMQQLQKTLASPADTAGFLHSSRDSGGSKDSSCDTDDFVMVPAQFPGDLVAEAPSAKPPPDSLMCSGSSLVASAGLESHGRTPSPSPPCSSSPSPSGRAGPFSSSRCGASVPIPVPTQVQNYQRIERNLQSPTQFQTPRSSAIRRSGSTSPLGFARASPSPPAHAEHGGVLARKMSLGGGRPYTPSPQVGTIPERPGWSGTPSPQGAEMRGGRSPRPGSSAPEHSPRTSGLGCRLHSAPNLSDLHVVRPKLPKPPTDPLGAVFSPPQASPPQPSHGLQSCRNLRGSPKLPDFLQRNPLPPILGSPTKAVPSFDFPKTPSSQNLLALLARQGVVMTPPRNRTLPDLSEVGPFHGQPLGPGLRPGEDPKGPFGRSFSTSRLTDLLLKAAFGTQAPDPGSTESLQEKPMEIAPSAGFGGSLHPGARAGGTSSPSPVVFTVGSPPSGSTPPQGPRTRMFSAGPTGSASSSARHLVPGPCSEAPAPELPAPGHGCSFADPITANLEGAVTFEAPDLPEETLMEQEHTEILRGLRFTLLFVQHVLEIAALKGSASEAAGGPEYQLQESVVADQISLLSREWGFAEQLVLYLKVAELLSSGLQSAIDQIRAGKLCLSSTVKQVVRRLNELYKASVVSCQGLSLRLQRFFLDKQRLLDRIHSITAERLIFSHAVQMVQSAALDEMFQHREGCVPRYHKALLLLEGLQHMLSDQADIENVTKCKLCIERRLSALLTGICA

[19] = target: various kinases (Homo sapiens, UniProt Q02750); conditions: MAP2K1 (MEK1)
[20] = target: various kinases (Homo sapiens, UniProt P45985); conditions: MAP2K4 (MEK4)
[21] = target: various kinases (Homo sapiens, UniProt Q12866, A708S); conditions: MERTK (cMER) A708S
[22] = target: various kinases (Homo sapiens, UniProt Q14004); conditions: CDK13/cyclin K
[23] = target: various kinases (Homo sapiens, UniProt Q9UM73, R1275Q); conditions: ALK R1275Q
[24] = target: various kinases (Homo sapiens, UniProt P24941)
[25] = target: various kinases (Homo sapiens, UniProt Q9NY57); conditions: kinase STK32B (YANK2); LanthaScreen Binding
Sequence of various kinases (Homo sapiens, UniProt Q9NY57) (Q9NY57 whole entry): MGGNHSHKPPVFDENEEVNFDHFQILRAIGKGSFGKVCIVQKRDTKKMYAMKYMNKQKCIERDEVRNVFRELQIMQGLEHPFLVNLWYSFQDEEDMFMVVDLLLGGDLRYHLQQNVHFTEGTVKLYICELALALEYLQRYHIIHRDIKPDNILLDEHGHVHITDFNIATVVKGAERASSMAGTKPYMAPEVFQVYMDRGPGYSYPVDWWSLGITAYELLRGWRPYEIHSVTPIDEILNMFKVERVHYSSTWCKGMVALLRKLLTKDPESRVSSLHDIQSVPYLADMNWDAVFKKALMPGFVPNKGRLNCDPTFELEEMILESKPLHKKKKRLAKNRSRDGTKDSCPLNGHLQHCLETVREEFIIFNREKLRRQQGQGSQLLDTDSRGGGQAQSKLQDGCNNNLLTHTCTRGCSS

Sequence of various kinases (Homo sapiens, UniProt P07949, M918T) (P07949 29-1114 M918T): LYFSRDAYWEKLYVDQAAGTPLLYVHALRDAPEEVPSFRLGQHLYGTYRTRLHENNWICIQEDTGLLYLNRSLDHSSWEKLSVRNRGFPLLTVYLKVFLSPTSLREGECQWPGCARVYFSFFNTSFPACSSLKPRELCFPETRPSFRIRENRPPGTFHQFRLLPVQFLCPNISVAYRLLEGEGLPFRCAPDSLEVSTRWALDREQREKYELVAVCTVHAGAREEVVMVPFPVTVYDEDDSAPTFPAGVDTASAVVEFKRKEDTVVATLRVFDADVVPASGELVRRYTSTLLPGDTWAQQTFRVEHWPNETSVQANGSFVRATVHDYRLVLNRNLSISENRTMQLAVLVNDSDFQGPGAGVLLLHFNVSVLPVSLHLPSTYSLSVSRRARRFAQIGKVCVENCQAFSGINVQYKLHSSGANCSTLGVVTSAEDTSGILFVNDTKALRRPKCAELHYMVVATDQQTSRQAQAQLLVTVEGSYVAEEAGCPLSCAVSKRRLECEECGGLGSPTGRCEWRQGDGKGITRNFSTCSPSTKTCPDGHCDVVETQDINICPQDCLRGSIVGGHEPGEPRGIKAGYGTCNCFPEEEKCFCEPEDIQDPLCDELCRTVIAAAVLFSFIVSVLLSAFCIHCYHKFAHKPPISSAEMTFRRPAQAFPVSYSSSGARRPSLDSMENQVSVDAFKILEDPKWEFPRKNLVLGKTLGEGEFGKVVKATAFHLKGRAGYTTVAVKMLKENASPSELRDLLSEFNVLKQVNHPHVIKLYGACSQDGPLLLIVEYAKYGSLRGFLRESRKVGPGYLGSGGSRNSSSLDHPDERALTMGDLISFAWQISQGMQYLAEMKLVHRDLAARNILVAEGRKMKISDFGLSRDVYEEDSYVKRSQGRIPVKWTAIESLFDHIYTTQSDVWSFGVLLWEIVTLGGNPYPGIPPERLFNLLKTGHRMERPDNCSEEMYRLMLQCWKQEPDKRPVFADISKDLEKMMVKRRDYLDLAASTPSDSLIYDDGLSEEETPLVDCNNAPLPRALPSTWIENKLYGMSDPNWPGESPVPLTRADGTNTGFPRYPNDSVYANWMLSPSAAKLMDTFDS
Sequence of various kinases (Homo sapiens, UniProt P50750) (P50750 whole entry): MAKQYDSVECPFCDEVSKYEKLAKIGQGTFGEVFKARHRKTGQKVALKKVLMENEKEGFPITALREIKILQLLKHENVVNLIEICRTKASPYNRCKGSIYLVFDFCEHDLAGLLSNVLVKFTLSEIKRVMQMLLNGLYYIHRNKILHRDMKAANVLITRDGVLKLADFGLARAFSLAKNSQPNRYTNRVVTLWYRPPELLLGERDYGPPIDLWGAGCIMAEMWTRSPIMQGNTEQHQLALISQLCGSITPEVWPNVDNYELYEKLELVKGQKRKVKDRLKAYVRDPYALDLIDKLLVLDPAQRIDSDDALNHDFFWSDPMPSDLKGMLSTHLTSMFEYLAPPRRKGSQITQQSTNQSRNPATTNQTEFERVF
Sequence of various kinases (Homo sapiens, UniProt Q07912) (Q07912 whole entry): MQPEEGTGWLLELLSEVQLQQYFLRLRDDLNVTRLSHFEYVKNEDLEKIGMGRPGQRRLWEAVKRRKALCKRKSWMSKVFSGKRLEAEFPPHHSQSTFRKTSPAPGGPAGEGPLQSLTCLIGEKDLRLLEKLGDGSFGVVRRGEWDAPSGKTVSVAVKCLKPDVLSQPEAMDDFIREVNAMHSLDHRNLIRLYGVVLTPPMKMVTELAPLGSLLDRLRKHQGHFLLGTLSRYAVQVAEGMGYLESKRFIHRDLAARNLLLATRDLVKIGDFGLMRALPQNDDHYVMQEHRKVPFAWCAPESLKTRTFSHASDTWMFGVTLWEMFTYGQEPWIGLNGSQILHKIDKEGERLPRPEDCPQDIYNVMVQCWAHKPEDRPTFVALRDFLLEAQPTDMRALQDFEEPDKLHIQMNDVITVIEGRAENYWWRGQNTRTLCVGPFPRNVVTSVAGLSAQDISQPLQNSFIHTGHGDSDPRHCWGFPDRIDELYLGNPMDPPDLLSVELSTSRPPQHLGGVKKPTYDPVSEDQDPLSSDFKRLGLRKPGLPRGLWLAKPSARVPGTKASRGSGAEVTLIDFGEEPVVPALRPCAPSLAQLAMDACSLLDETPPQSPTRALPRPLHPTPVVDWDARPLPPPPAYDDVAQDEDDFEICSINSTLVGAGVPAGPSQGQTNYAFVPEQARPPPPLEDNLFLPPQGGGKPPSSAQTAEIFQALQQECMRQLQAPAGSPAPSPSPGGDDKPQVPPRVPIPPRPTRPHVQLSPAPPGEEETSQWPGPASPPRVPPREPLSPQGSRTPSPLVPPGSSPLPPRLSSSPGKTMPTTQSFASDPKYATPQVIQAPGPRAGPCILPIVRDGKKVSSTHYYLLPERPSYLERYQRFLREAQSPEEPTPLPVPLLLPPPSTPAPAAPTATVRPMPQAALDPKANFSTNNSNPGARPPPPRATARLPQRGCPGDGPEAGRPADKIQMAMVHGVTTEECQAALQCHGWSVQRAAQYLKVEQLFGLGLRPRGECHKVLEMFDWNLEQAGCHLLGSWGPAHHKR
Sequence of various kinases (Homo sapiens, UniProt Q5TCX8) (Q5TCX8 whole entry): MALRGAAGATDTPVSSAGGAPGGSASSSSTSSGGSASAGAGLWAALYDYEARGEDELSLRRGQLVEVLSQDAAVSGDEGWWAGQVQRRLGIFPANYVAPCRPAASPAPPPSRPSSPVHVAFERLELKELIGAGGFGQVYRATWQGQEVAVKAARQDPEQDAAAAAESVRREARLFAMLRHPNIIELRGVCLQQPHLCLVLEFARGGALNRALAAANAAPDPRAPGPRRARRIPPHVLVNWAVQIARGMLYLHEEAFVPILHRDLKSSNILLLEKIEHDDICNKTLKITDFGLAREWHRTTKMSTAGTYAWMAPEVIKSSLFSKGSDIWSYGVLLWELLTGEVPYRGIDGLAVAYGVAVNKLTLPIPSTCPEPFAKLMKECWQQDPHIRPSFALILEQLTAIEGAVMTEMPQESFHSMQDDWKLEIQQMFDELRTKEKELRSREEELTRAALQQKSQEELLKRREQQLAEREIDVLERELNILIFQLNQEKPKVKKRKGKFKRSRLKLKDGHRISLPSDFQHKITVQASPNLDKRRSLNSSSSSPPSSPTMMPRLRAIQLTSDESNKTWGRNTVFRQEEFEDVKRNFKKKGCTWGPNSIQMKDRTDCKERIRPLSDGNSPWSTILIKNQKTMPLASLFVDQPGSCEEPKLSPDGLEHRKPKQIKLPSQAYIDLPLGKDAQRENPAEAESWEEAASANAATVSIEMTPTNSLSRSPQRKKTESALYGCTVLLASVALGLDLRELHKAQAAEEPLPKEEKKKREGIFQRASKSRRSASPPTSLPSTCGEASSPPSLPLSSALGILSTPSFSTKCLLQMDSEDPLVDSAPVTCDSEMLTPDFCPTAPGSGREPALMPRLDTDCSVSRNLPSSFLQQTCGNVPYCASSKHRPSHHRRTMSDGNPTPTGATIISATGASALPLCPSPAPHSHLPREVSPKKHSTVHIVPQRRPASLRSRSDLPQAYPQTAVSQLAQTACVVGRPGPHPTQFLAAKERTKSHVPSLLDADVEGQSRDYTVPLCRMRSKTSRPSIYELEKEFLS
Sequence of various kinases (Homo sapiens, UniProt Q9UBE8) (Q9UBE8 whole entry): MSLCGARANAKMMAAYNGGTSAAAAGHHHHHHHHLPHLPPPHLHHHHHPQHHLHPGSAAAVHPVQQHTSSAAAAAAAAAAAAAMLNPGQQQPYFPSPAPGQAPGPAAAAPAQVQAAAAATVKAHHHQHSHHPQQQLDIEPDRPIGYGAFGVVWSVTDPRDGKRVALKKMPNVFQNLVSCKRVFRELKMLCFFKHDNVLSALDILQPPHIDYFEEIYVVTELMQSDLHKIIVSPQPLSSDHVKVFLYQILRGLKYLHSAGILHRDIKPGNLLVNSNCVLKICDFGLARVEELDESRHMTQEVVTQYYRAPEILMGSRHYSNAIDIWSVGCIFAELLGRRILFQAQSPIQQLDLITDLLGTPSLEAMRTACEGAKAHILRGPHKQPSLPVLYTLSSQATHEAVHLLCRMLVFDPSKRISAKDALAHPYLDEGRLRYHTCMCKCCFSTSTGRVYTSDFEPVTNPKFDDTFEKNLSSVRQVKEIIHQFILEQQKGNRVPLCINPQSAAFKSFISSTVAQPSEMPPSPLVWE
Sequence of various kinases (Homo sapiens, UniProt Q02750) (Q02750 whole entry): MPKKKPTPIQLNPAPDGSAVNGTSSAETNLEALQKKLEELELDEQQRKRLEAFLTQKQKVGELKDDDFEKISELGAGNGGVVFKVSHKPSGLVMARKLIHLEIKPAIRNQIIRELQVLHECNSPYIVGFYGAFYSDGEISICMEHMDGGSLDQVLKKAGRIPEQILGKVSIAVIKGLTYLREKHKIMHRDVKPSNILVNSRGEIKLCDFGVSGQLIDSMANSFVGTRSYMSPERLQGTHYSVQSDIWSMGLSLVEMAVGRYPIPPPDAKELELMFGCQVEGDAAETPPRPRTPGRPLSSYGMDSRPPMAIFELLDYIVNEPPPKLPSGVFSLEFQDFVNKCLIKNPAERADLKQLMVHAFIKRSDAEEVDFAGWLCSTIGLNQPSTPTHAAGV

## COc1ccc2c(c1)[C@]1(C[C@H]1c1ccc3c(/C=C/c4ccc(CN5C[C@@H](C)O[C@@H](C)C5)cc4)n[nH]c3c1)C(=O)N2 [CFI-400945]
[1]
  % Inhibition: 52% and 50%
[2]
  % Inhibition: 24% and 17%
[3]
  % Inhibition: 8% and 5%
[4]
  % Inhibition: 1% and 6%
[5]
  % Inhibition Average: 9%
  % Inhibition Duplicate #1: 11%
  % Inhibition Duplicate #2: 8%
[6]
  % Inhibition: 6%
[7]; CDK9 (Inactive)
  % Inhibition: 13% and 12%
[7]; CDK9/cyclin K
  % Inhibition: -3% and -6%
[8]
  % Inhibition: -2% and -1%
[9]
  % Inhibition: 0% and 1%
[10]
  % Inhibition: -9% and -6%
[11]
  % Inhibition: 8% and 4%
[12]
  % Inhibition: 1% and 2%
[13]
  % Inhibition: 46% and 45%
[14]
  % Inhibition: 21% and 22%
[15]
  % Inhibition Average: 27%
  % Inhibition Duplicate #1: 26%
  % Inhibition Duplicate #2: 28%
[16]
  % Inhibition: 23% and 19%
[17]
  % Inhibition Average: -4%
  % Inhibition Duplicate #1: -6%
  % Inhibition Duplicate #2: -3%
[18]
  % Inhibition Average: 3%
  % Inhibition Duplicate #1: 4%
  % Inhibition Duplicate #2: 2%
[19]
  % Inhibition: 9% and 8%
[20]
  % Inhibition: 7% and 3%
[21]
  % Inhibition: 7% and 2%
[22]
  % Inhibition: -6% and 0%
[23]
  % Inhibition: 65%
  pIC50: 6.35
[24]; CDK2/cyclin A1
  % Inhibition: 12% and 19%
[24]; CDK2/cyclin E1
  % Inhibition: 9%
[24]; CDK2/cyclin O
  % Inhibition: 13% and 19%
[25]
  % Inhibition Average: 4%
  % Inhibition Duplicate #1: -1%
  % Inhibition Duplicate #2: 9%
